Tests used:
[1] = tested on: AKT protein phosphorylated on serine 473 (P-AKT-S473) in PC3 human prostate carcinoma cells; test: pAKT expression in PC3 cells measured by MSD Multi-spot Biomarker Detection (Test B); type: cell-based; conditions: PC-3, inhibition of AKT Ser473 phosphorylation, 1 to 2 h incubation, MSD sandwich immunoassay, absolute IC50, mean of two experiments
Description: (§1) The inhibitory activity of the molecules on AKT phosphorylation is measured either by western blotting using the technique described below, or by the MSD Multi-spot Biomarker detection technique from Meso Scale Discovery also described below.
Where appropriate, the activity of the products is translated into approximately IC50, obtained from a dose-response curve of various concentrations tested and representing the dose giving 50% of specific inhibition (absolute IC50). Two independent experiments make it possible to calculate the mean of the IC50s. Study of pAKT expression in PC3 human prostate carcinoma cells measured by the MSD Multi-spot Biomarker Detection technique from Meso Scale Discovery (Test B): This test is based on measuring the expression of the AKT protein phosphorylated on serine 473 (P-AKT-S473), in the PC3 human prostate carcinoma line, by means of the technique based on a sandwich immunoassay using the MSD Multi-spot Biomarker Detection kit from Meso Scale Discovery: phospho-Akt (Ser473) whole cell lysate kit (#K151 CAD) or phospho-Akt (Ser473)/Total Akt whole cell lysate kit (#K151OOD).
The primary antibody specific for P-AKT-5473 (Kit #K151 CAD) is coated onto an electrode in each well of the 96-well plates of the MSD kit: after the addition of a protein lysate to each well, the signal is visualised by adding a secondary detection antibody labelled with an electrochemoluminescent compound. The procedure followed is that described in the kit.
(§2) On day 1, the PC3 cells are seeded into 96-well plates (TPP, #92096) at the concentration of 35 000 cells/well in 200 μl of DMEM medium (DMEM Gibco #11960-044) containing 10% of foetal calf serum (FCS Gibco, #10500-056) and 1% glutamine (L-Glu Gibco #25030-024), and incubated at 37° C., 5% CO2, overnight.
(§3) On day 2, the cells are incubated in the presence or absence of the test products for 1 to 2 h at 37° C. in the presence of 5% of CO2. The molecules, diluted in dimethyl sulphoxide (DMSO Sigma #D2650), are added from a 20-times concentrated stock solution, the final percentage of DMSO being 0.1%. The molecules are tested either at a single concentration of less than or equal to 10 μM, or at increasing concentrations in a range that can extend from less than 1 nM to 10 μM.
After this incubation, the cells are lysed for the preparation of the proteins. For this, after the culture medium has been drawn off, […] of complete Tris Lysis Buffer of the MSD kit containing the protease and phosphatase inhibitor solutions are added to the wells and the cells are lysed for 1 h at 4° C. with shaking At this stage, the plates containing the lysates can be frozen at −20° C. or at −80° C.
The wells of the 96-well plates of the MSD kit are saturated for 1 h at ambient temperature with the blocking solution of the MSD kit. Four washes are carried out with 150 μl of Tris Wash Buffer of the MSD kit. The lysates previously prepared are transferred into the 96-well multi-spot plates of the MSD kit and incubated for 1 h at ambient temperature, with shaking Four washes are carried out with 150 μl of Tris Wash Buffer of the MSD kit. 25 μl of the MSD sulpho-tag detection antibody solution are added to the wells and incubated for 1 h at ambient temperature, with shaking Four washes are carried out with 150 μl of Tris Wash Buffer of the MSD kit. 150 μl of Read Buffer of the MSD kit are added to the wells and the plates are read immediately on the 512400 instrument from Meso Scale Discovery.
The instrument measures a signal for each well. Wells without cells and containing the lysis buffer serve to determine the background noise that will be subtracted from all the measurements (min). The wells containing cells in the absence of product and in the presence of 0.1% DMSO are considered to be the 100% signal (max). The percentage inhibition is calculated for each concentration of test product according to the following formula: (1−((test−min)/(max−min)))×100. […]

[2] = tested on: AKT protein phosphorylated on serine 473 in PC3 human prostate carcinoma cells; test: pAKT expression in PC3 cells measured by western blotting (test A); type: cell-based; conditions: PC-3, inhibition of AKT Ser473 phosphorylation, 1 to 2 hours incubation, absolute IC50, mean of two experiments
Description: as §1
Study of pAKT expression in PC3 human prostate carcinoma cells measured by western blotting (test A):
This test is based on measuring the expression of the AKT protein phosphorylated on serine 473. The phosphorylation of AKT (pAKT) is measured by western blotting in the PC3 human prostate carcinoma line (ATCC CRL-1435), using an antibody that specifically recognises pAKT-5473.
as §2, with “6-well” for “96-well”, “#92006)” for “#92096)”, “0.8×10^6” for “35 000”, “1800” for “200”, “(SVF” for “(FCS”
as §3, with “2 hours” for “2 h”, “5%” for “5% of”, “a 10-times” for “a 20-times”
After this incubation, the cells are lysed for the preparation of the proteins. After the culture medium has been drawn off, the cells are rinsed with 1 ml of PBS (DPBS Gibco, #14190-094), recovered by scraping in 200 μl of complete HNTG buffer and transferred into a 96-well plate (Greiner #651201), and lysed for 1 h on ice. The HNTG buffer is composed of the following mixture: 50 mM hepes, 150 mM NaCl, 1% triton, 10% glycerol, with extemporaneous addition of one Mini Protease Inhibitor Cocktail tablet (Roche 1836153) and of one Phosphatase Inhibitor Cocktail tablet (Roche 104906837001) per 10 ml of buffer.
The lysate is centrifuged for 10 min at 6000 rpm. 155 μl of supernatant are recovered. 150 μl are incubated for denaturation for 5 min at 95° C. in the presence of 4× NuPAGE LDS Sample Buffer diluted 4-fold (InVitrogen ref NP0007) and of 10× NuPAGE Sample Reducing Agent diluted 10-fold (InVitrogen ref NP0009). These samples are then frozen at −20° C. 5 μl are assayed by the microBCA technique according to the technical bulletin of the MicroBCA Protein Assay Kit (Pierce #23235).
For protein separation, 20 μg of proteins are loaded on to a NU-PAGE 4-12% Bis Tris Gel 12 well (InVitrogen ref NP0322BOX) and the migration is carried out for 1 h 30 in 20×NU-PAGE MOPS SDS Running Buffer diluted 20-fold (InVitrogen ref NP0001), at 150 volts.
The gel is then transferred onto an Invitrolon PVDF membrane (Invitrogen #LC2007) permeabilised beforehand for a few seconds in ethanol (Ethanol Fischer Scientific #E/0600DF/15).
The transfer is carried out in a Biorad tank at 30 volts overnight or at 60 volts for 3 hours, in the presence of 20× NUPAGE Transfer Buffer diluted 20-fold (InVitrogen ref NP0006).
The membrane is then saturated in saturating solution composed of TBS (10× Tris Buffered Saline, Sigma #T5912, diluted 10-fold), 0.1% Tween 20 (Sigma #P5927) and 3% BSA (Bovine Serum Albumin Fraction V, Sigma #A4503) for 6 h after overnight transfer or else for 1 h after transfer for a period of 3 h.
The primary antibodies are diluted to 1/1000th for the anti-phospho AKT-Ser473 antibody (193H2, rabbit monoclonal, cat#4058 from Cell Signaling Technology) Abcam), in saturating solution composed of […], 0.1% Tween 20 and 3% BSA, and then shaken overnight at 4° C.
Two rinses for 5 min in washing solution composed of TBS and 0.1% Tween 20 are carried out before hybridisation of the secondary antibodies. […]

Row | SMILES | IC50 [1] | IC50 [2]
1 | O=c1cc(N2CCOCC2)nc(Cc2nc3ccc(F)cc3[nH]2)[nH]1 [Example 1, 2-[(5-fluoro-1H-benzimidazol-2-yl)methyl]-6-(morpholin-4-yl)pyrimidin-4(3H)-one] | 41 nM | 298 nM
2 | O=c1cc(N2CCOCC2)nc(Cc2nc3ccccc3o2)[nH]1 [Example 2, 2-(1,3-benzoxazol-2-ylmethyl)-6-(morpholin-4-yl)pyrimidin-4(3H)-one] |  | 388 nM
3 | O=c1cc(N2CCOCC2)nc(Cc2nc3ccc(Br)cc3[nH]2)[nH]1 [Example 3, 2-[(5-bromo-1H-benzimidazol-2-yl)methyl]-6-(morpholin-4-yl)pyrimidin-4(3H)-one] | 85 nM | 1340 nM
4 | O=c1cc(N2CCOCC2)nc(Cc2nc3ccc(F)cc3o2)[nH]1 [Example 6, 2-[(6-fluoro-1,3-benzoxazol-2-yl)methyl]-6-(morpholin-4-yl)pyrimidin-4(3H)-one] | 49 nM | 380 nM
5 | O=c1cc(N2CCOCC2)nc(Cc2nc3c(O)cccc3o2)[nH]1 [Example 40, 2-[(4-hydroxy-1,3-benzoxazol-2-yl)methyl]-6-(morpholin-4-yl)pyrimidin-4(3H)-one] | 44 nM | 

Further lines, results first:

Row | IC50 [1] | IC50 [2] | SMILES
6 |  | 1010 nM | O=c1cc(N2CCOCC2)nc(Cc2nc3cc(F)c(F)cc3[nH]2)[nH]1 [Example 5, 2-[(5,6-difluoro-1H-benzimidazol-2-yl)methyl]-6-(morpholin-4-yl)pyrimidin-4(3H)-one]
7 | 26 nM | 903 nM | O=c1cc(N2CCOCC2)nc(Cc2nc3cc(F)ccc3o2)[nH]1 [Example 7, 2-[(5-fluoro-1,3-benzoxazol-2-yl)methyl]-6-(morpholin-4-yl)pyrimidin-4(3H)-one]
8 | 27 nM | 713 nM | Cn1c(Cc2nc(N3CCOCC3)cc(=O)[nH]2)nc2ccccc21 [Example 10, 2-[(1-methyl-1H-benzimidazol-2-yl)methyl]-6-(morpholin-4-yl)pyrimidin-4(3H)-one]
9 | 100 nM |  | Cn1c(Cc2nc(N3CCOCC3)cc(=O)[nH]2)nc2cc(F)c(F)c(F)c21 [Example 39, 6-(Morpholin-4-yl)-2-[(5,6,7-trifluoro-1-methyl-1H-benzimidazol-2-yl)methyl]pyrimidin-4(3H)-one]
10 | 32 nM |  | Cn1c(Cc2nc(N3CCOCC3)cc(=O)[nH]2)nc2cccc(Br)c21 [Example 41, 2-[(7-Bromo-1-methyl-1H-benzimidazol-2-yl)methyl]-6-(morpholin-4-yl)pyrimidin-4(3H)-one]
